Measured values reported in patent US11779565B2, “Small organic molecules for use in the treatment of neuroinflammatory disorders” (THE MEDICAL RESEARCH, INFRASTRUCTURE AND HEALTH SERVICES …, priority 2017, dated 2023).

How the values were obtained:
ATDC5 cells = experiment: Cell viability (CellTiter-Glo) in the ATDC5 HTS bioassay; assay type: cell-based; conditions: library screening
Protocol: Poly-L-lysine (Sigma-Aldrich) was added to 384-well plates and was removed after 30 min of incubation at RT. An assay medium containing DMEM/F12, 2% FBS, 100 units/ml penicillin, […] streptomycin (Biological industries) was added to each well. […] ATDC5 cells (Sigma-Aldrich) were harvested, re-suspended in assay medium and added to a final concentration of 2000 cells/well. Finally, heparin (Sigma-Aldrich) was added to a final concentration of 2 μg/ml. The cells were incubated for 48 hours at 37° C. with 5% CO2 in a humidified chamber in the presence or absence of potential small molecule inhibitors of BPM-2. After incubation, ALP levels and cell viability were determined using a completely automated protocol. Cells were washed with PBS, lysed using a lysis buffer containing 0.2% Triton X-100 in PBS supplemented with a protease inhibitor cocktail (Sigma-Aldrich) and incubated for 25 min at RT. ALP level was then determined by addition of CDP-Star® chemiluminescent substrate (Sigma-Aldrich) and measurement of luminescence after incubation for 25 min at RT in the dark. Cell viability was finally determined by addition of CellTiter-Glo® reagent (Biological Industries) and luminescence measurement after 10 min of incubation.
An ATDC5 cell based assay for assessing structure-function relationship of BMP-2 and BMP receptor IA was originally described in Keller et al (Nature Structural & Molecular Biology 2004 11, 481-488). In order to screen a large volume of potential therapeutic agents the ATDC5 cell based bioassay for detecting BMP inhibition was adapted for use in high throughput screening. The bioassay is based on the stimulation of alkaline phosphatase (ALP) production in mouse ATDC5 cells by administration of BMP-2 and heparin, and measurement of ALP levels in the presence of the potential inhibitors. The assay was characterized by the following features: • (a) optimal conditions for HTS automated instruments were found so as to obtain a satisfying gap (i.e. positive Z-prime, above 0.5) between ALP production in the presence of BMP-2, to ALP production in the absence of BMP-2 (no stimulation). • (b) a sensitive method was designed for ALP determination for HTS—namely, the use of CDP-Star® chemiluminescent substrate and luminescence measurement. • (c) both ALP production and cells' viability were measured simultaneously. This was achieved by using CellTiter-Glo® Luminescent Cell Viability Assay for assessing the cells' viability after the luminescent signal by CDP-Star® has faded. […]
A library of small molecules (SM) was screened using the High Throughput Screening bioassay described above. […] The ALP levels and cell viability are shown in FIG. 2 as a percentage of the ALP or viability luminescence levels in the presence of BMP-2 without the SM. […]

SMAD1/5/8 signaling = SMAD1/5/8 signaling by Western blot in P19 cells; assay type: cell-based, murine; conditions: 4 h
Protocol: P19 cells were seeded in 6-well-plates (3.5×10^5 cells/well). On the following day, the cells were either untreated or treated with 5×10^−7 M RA, 5 ng/ml BMP-2 or SMs for 4 h. Cells were washed with ice cold PBS, harvested and lysed with ice cold RIPA buffer (Sigma-Aldrich) supplemented with protease inhibitor cocktail and sodium orthovanadate (Na3VO4) as phosphatase inhibitor (Sigma-Aldrich). Protein concentrations were determined using a BCA protein assay kit (Pierce, Rockford, Ill.). Cell lysates (40-60 μg protein) were separated by 4-15% SDS-PAGE gel electrophoresis and then transferred to nitrocellulose membranes at 0.2 A for 2 h. The membranes were blocked at room temperature for 1 h in 5% (w/v) non-fat-dried milk and then incubated with anti-phospho-Smad1/5/9, anti-Smad1 (Cell signaling Technology, Beverly, Mass., USA) and anti-tubulin (Sigma-Aldrich) antibodies at room temperature for 2 h. The membranes were washed and incubated with alkaline phosphatase-conjugated secondary antibody (Jackson Laboratories Immune Research, PA, USA). Signal was detected using enhanced chemiluminescence kit (Clarity, Bio-Rad Laboratories, Richmond, Calif.) and digital images were captured by MicroChemi (DNR Bio-imaging Systems, Jerusalem, Israel). Protein levels were quantified using ImageJ software and normalized to {alpha}-tubulin.
The canonical BMP signal is known to be mediated via SMAD phosphorylation. BMPs transduce signals by binding to complexes of type I and II serine/threonine kinase receptors. Ligand binding induces phosphorylation of the receptors, which then activate canonical signaling via receptor Smads (R-Smads) 1, 5 and 8. R-Smads are phosphorylated by the activated type I receptor. They then complex with Smad4, triggering nuclear translocation. The effect of the SMs on the phosphorylation of the canonical SMAD1/5/8 signaling, induced in P19 cells in response to stimulation with BMP-2, was examined.

RR-EAE mice = experiment: Demyelination in EAE: LFB-H&E staining of lumbar spinal cord; assay type: in vivo; conditions: day 48 post immunization (vehicle 28.3±1.8%)
Protocol: FIGS. 6A-6B—The effect of SM1, SM6, SM7 and SM9 on demyelination. FIG. 6A: Representative images of the lumbar spinal cord section, stained with LFB (anterio lateral funiculus), of mice treated with vehicle, SM1 10 mg/kg/day, SM1 20 mg/kg/day, SM7 10 mg/kg/day, SM9 10 mg/kg/day, SM9 20 mg/kg/day, SM6 10 mg/kg/day and SM6 20 mg/kg/day. FIG. 6B: Quantification of myelinated area. […] Quantification was performed using Image J software on 6 mice/group and 3 sections/mouse.
The direct effect of the SMs on the demyelination and remyelination processes was analyzed. Spinal cord was removed from 6 mice of each group and the lumbar segment of the spinal cord was sectioned (10 μm coronal paraffin section) and was processed for LFB-H&E (luxol fast blue with H&E) for myelin and infiltrates staining.

| SMILES | cytotoxicity in mouse ATDC5 cells (ATDC5 cells) | reduction in p-SMAD/tubulin compared to stimulation with BMP-2 alone (SMAD1/5/8 signaling; 2.5 μM) [%] | reduction in p-SMAD/tubulin compared to stimulation with BMP-2 alone (SMAD1/5/8 signaling; 5 μM) [%] | % myelinated area (LFB-stained area of total spinal cord section) (RR-EAE mice; 10 mg/kg) [%] | % myelinated area (LFB-stained area of total spinal cord section) (RR-EAE mice; 20 mg/kg) [%] |
| --- | --- | --- | --- | --- | --- |
| COC(=O)c1sccc1N/N=C(\C#N)S(=O)(=O)c1cccs1 [SM1, Methyl 3-[(2E)-2-[cyano(thiophen-2-ylsulfonyl)methylidene]hydrazinyl]thiophene-2-carboxylate] | without leading to cytotoxicity | 24.2 | 19.9 |  |  |
| O=C(Nc1cccc(C(F)(F)F)c1)c1ccc([N+](=O)[O-])o1 [SM6, N2-[3-(trifluoromethyl)phenyl)-5-nitro-2-furamide] | without leading to cytotoxicity |  |  | 34.8±1.6 |  |
| N#Cc1c(O)nsc1Nc1ccccc1C(F)(F)F [SM7, 3-hydroxy-5-[2-(trifluoromethyl)aniline]isothiazole-4-carbonitrile] | without leading to cytotoxicity | 40.0 |  | 34.0±0.8 |  |
| CS(=O)(=O)c1noc(-c2ccc(Cl)cc2)c1C#N [SM9, 5-(4-chlorophenyl)-3-methylsulfonyl-1,2-oxazole-4-carbonitrile] | without leading to cytotoxicity | 42.7 |  |  | 34.6±1.6 |
